Holding throughout (format): cell-based
The test system of experiment [1] is cultured cells of Taxus baccata LINN. In words: Growth rate and taxane yield, shake culture under controlled oxygen concentration in the gas phase, with or without methyl jasmonate. The conditions noted are these: max oxygen in gas phase 10%; for yield of baccatin III / yield of cephalomannine / yield of taxol: cell + medium. As to the method:
One gram (fresh weight) of the callus was inoculated to an Erlenmeyer flask containing 20 ml of liquid Woody Plant Medium to which the above-mentioned component had been added to give the same concentration and shake culture was carried out with a rotary shaker (amplification of 25 mm, 100 rpm) and the callus was subcultured in every 21 days to accelerate the growth rate of the callus.
One gram (fresh weight) of the cultured cells thus obtained was inoculated to an Erlenmeyer flask containing 20 ml of liquid Woody Plant Medium to which the above-mentioned component had been added to give the same concentration, and the flask was placed in a chamber (the capacity of 3000 ml) having a gas feed opening and a gas discharge opening, then the chamber was closed hermetically, and air was so mixed with nitrogen that the concentration of the oxygen in a gas to be supplied to the cells to be cultured became 4-15%, and while the gas was supplied through the feed opening at the rate of 25 ml per minute, shake culture was carried out at 25° C. for 21 days.
After completing the culture, cultured cells of Taxus baccata LINN were harvested by filtration and lyophilized, then the dry weight was measured to obtain the growth rate thereof. Taxane-type diterpenes were extracted from the dried cells with methanol and the like, and they were determined by comparing with standard taxol, cephalomannine, and baccatin III using high performance liquid chromatography to measure the yields of the taxane-type diterpenes.

Experiment [2] shares this test system. In words: Two-stage culture: first stage with potassium peroxodisulfate, second stage with methyl jasmonate; cell yield and taxol yield. The conditions noted are these: for yield of cells, second stage of the culture / yield of taxol, second stage of the culture: second stage with methyl jasmonate 100 μM on the 14th day; for content of taxol, first stage of the culture / yield of cells, first stage of the culture: added 1st day. As to the method: After completing the culture, the cultured cells were harvested by filtration and a part of the cells were used as seed cells for the second stage of the culture and the rest of the cells were subjected to the measurement of the cell yield and the taxane content in the cells. Accordingly, 1 g (fresh weight) of the cultured cells were inoculated to an Erlenmeyer flask containing 20 ml of liquid Woody Plant Medium to which naphthalenacetic acid had been added to give the concentration of 10^−5M and shake culture was carried out at 25° C. for 14 days. On the 14th day of the culture, methyl jasmonate was added to the medium to give the concentration in the medium of 100 μM and the culture was further continued for another 7 days. On the other hand, the rest of the cells obtained in the first stage of the culture were lyophilized, then the dry weight was measured to obtain the cell yield thereof per liter of the liquid medium. The content of taxol in the dried cells was measured by high performance liquid chromatography. The yield of the cells and the yield of taxol were measured for the cells obtained by second stage of the culture in the same manner as that for the cells obtained in the first stage of the culture.

Experiment [3] has the same test system. In words: Taxane-type diterpene yield and cell yield, shake culture of Taxus baccata cells with a jasmonic acid (or jasmone) added. The conditions noted are these: for taxol inducing activity: see Comparative Example No. 24; for cell yield / yield of baccatin III / yield of cephalomannine / yield of taxol: 7 more days.
The mark [4] stands for this setting: first stage with potassium peroxodisulfate 5 × 10^−3M.
Where [5] appears, read: first stage with potassium peroxodisulfate 5 × 10^−4M.
The mark [6] stands for this setting: first stage with potassium peroxodisulfate 10^−3M.
[7] abbreviates: first stage with potassium peroxodisulfate 10^−4M.
The mark [8] stands for this setting: first stage with potassium peroxodisulfate 10^−5M.
Setting [9] is: potassium peroxodisulfate 5 × 10^−3M in the medium.
[10] abbreviates: potassium peroxodisulfate 5 × 10^−4M in the medium.
Setting [11] is: potassium peroxodisulfate 10^−3M in the medium.
Where [12] appears, read: potassium peroxodisulfate 10^−4M in the medium.
[13] abbreviates: potassium peroxodisulfate 10^−5M in the medium.

On to `CCC=CCC1C(=O)CCC1CC(=O)OC` (stereo not shown) [Example 66], for which, in experiment [1] (methyl jasmonate 10 μM), the growth rate is reported as 2.82 times, the “total yield of taxane” value came to 14.73 mg/L, the “yield of baccatin III” value amounted to 2.26 mg/L and the yield of cephalomannine is 1.73 mg/L. In experiment [1] (methyl jasmonate 10 μM), the yield of taxol was found to be 10.24 mg/L. Further, in experiment [1] (methyl jasmonate 100 μM), the growth rate came out at 2.45 times, the “total yield of taxane” value came out at 36.05 mg/L, the “yield of baccatin III” value was determined as 11.32 mg/L and the yield of cephalomannine turned out to be 2.29 mg/L. Besides, the yield of taxol in experiment [1] (methyl jasmonate 100 μM) is 22.44 mg/L. Besides, in experiment [1] (methyl jasmonate 1000 μM), the growth rate was determined as 1.47 times, the “total yield of taxane” value is 8.61 mg/L, the “yield of baccatin III” value was found to be 2.10 mg/L and the yield of cephalomannine is 1.47 mg/L. Moreover, the yield of taxol in experiment [1] (methyl jasmonate 1000 μM) turned out to be 5.04 mg/L.

For the molecule `O=S(=O)([O-])OOS(=O)(=O)[O-].[K+].[K+]` [Example 77], the “yield of cells, second stage of the culture” value is 12.1 g/L in experiment [2] (setting [4]); 14.4 g/L in experiment [2] (setting [5]); 13.0 g/L in experiment [2] (setting [6]); 15.0 g/L in experiment [2] (setting [7]); 15.6 g/L in experiment [2] (setting [8]). The “yield of taxol, second stage of the culture” value in experiment [2] (setting [4]) is 11.7 ppm; in experiment [2] (setting [5]), 16.3 ppm; in experiment [2] (setting [6]), 13.6 ppm; in experiment [2] (setting [7]), 20.4 ppm; in experiment [2] (setting [8]), 14.0 ppm. Moreover, the “content of taxol, first stage of the culture” value in experiment [2] (setting [9]) was determined as 45 ppm; in experiment [2] (setting [10]) it was 183 ppm; in experiment [2] (setting [11]), 84 ppm; in experiment [2] (setting [12]), 250 ppm; in experiment [2] (setting [13]) it was 97 ppm. The “yield of cells, first stage of the culture” value in experiment [2] (setting [9]) was found to be 14.0 g/L; in experiment [2] (setting [10]) it was 15.5 g/L; in experiment [2] (setting [11]), 15.2 g/L; in experiment [2] (setting [12]), 16.2 g/L; in experiment [2] (setting [13]) it was 17.1 g/L.

Turning to `CC/C=C\CC1=C(C)CCC1=O` [jasmone, reference compound], in experiment [3], the taxol inducing activity result was “low”.

Consider `CC/C=C\C[C@H]1C(=O)CC[C@@H]1CC(=O)O` [jasmonic acid], for which the cell yield in experiment [3] (0.01 μM added on 14th day) was 12.2 g/L; in experiment [3] (0.1 μM added on 14th day), 12.2 g/L; in experiment [3] (1 μM added on 14th day) it was 11.6 g/L; in experiment [3] (10 μM added on 14th day), 11.5 g/L; in experiment [3] (50 μM added on 14th day) it was 11.4 g/L; in experiment [3] (100 μM added on 14th day), 10.3 g/L. Besides, the cell yield in experiment [3] (250 μM added on 14th day) came out at 10.1 g/L; in experiment [3] (500 μM added on 14th day), 10.2 g/L; in experiment [3] (1000 μM added on 14th day), 6.7 g/L. In addition, the “yield of baccatin III” value in experiment [3] (0.01 μM added on 14th day) was 0.3 mg/L; in experiment [3] (0.1 μM added on 14th day), 0.3 mg/L; in experiment [3] (1 μM added on 14th day) it was 0.3 mg/L; in experiment [3] (10 μM added on 14th day), 0.5 mg/L; in experiment [3] (50 μM added on 14th day) it was 2.5 mg/L; in experiment [3] (100 μM added on 14th day), 7.2 mg/L. For the same molecule, the results for the “yield of baccatin III” value in experiment [3] (250 μM added on 14th day), in experiment [3] (500 μM added on 14th day) and in experiment [3] (1000 μM added on 14th day) were 10.6 mg/L, 12.0 mg/L and 1.2 mg/L, respectively. Besides, the yield of cephalomannine was 0.6 mg/L in experiment [3] (0.01 μM added on 14th day); 0.6 mg/L in experiment [3] (0.1 μM added on 14th day); 0.8 mg/L in experiment [3] (1 μM added on 14th day); 2.6 mg/L in experiment [3] (10 μM added on 14th day); 2.2 mg/L in experiment [3] (50 μM added on 14th day); 3.0 mg/L in experiment [3] (100 μM added on 14th day). Besides, the yield of cephalomannine in experiment [3] (250 μM added on 14th day) was 2.7 mg/L; in experiment [3] (500 μM added on 14th day), 1.1 mg/L; in experiment [3] (1000 μM added on 14th day) it was 0.5 mg/L. Further, the yield of taxol in experiment [3] (0.01 μM added on 14th day) turned out to be 2.2 mg/L; in experiment [3] (0.1 μM added on 14th day), 3.4 mg/L; in experiment [3] (1 μM added on 14th day), 5.9 mg/L; in experiment [3] (10 μM added on 14th day) it was 8.3 mg/L; in experiment [3] (50 μM added on 14th day), 10.2 mg/L; in experiment [3] (100 μM added on 14th day), 12.8 mg/L. The yield of taxol in experiment [3] (250 μM added on 14th day) is 14.7 mg/L; in experiment [3] (500 μM added on 14th day), 11.1 mg/L; in experiment [3] (1000 μM added on 14th day), 1.2 mg/L.

Take methyl jasmone [reference compound]: in experiment [3], the taxol inducing activity result is given as “low”.

The values above are taken from US6403343B2, “Method of producing a taxane-type diterpene and a method of obtaining cultured cells which produce the taxane-type dilterpene at a high rate” (Mitsui Chemicals, Inc., priority 1993, dated 2002).
